# Laboratory results published in patent US20210052566A1, “METHODS FOR TREATING HEPATITIS B VIRUS (HBV) INFECTION” (INSERM (INSTITUT NATIONAL DE LA SANTÉ ET DE LA RECHERCHE …, priority 2018, published 2021).
# How the values were obtained:
# [1] = test system: HBV genotype C; assay: Anti-HBV properties in persistently infected dHepaRG cells, genotype C; format: cell-based, Hepatitis B virus; conditions: 10 microM three times
# Method: (§1) FIG. 1. Experimental outlines. Treatment schemes: (a) Treatments in pre-infection: dHepaRG cells were treated for 24 h (at day −1) with 100 nM of PreS1 peptide (PreS1-pep) or 10 μM of 1C8, or untreated (NT). At day 0, cells were inoculated with HBV (MOI=250) or with HDV (MOI=25) in the presence of drugs for 24 h. For the tenofovir control (TDF at 10 μM), cells were treated at day 1 and 4 post-infection. Supernatant and cells were harvested at day 7 post-infection. (b) Treatments in post-infection: dHepaRG cells were inoculated with HBV (MOI=250) or with HDV (MOI=25). At days 4, 7 and 9 post infection, cells were treated with TDF 10 μM, lamivudine (3TC) at 10 μM, 1C8 10 μM or untreated (NT). […]
# (§2) FIG. 6. […] B) HBs and HBe secreted antigens in supernatant were quantified by ELISA, whereas HBV DNA contained in virions was quantified by qPCR after viral nucleic acid extraction from supernatant. […] Statistics were done by two-tailed Mann-Whitney test, with following significativity: *P<0.05, **P<0.01, ***P<0.001, ****P<0.0001. nd=not determined. […]
# (§3) From cell culture supernatants, secreted HBe and HBs antigens were quantified by ELISA, using a chemiluminescence immunoassay kit (Autobio, China) following manufacturer's instructions. […]
# (§4) A HBV standard was used for quantification of extracellular viral DNA and RNA. […] CccDNA was normalized to β-Globin quantification. […]
# [2] = test system: HBV genotype C; assay: De novo establishment of HBV infection/cccDNA in naive dHepaRG, genotype C (treatment before and during inoculation); format: cell-based, Hepatitis B virus
# Method: as §1
# as §2, with “8.” for “6.”, “determined” for “determined.”
# as §3, §4
smiles,measurement,setting,value
"Cn1ccc(=O)c(C(=O)Nc2nsc3ccc([N+](=O)[O-])cc23)c1 [1C8, 4-pyridinonebenzisothiazole carboxamide]",antiviral properties against genotype C virus,[1],"retained antiviral properties against this strain, although with a slightly reduced efficacy"
same,inhibition at 10 µM,"[2]; Hepatitis B virus, dHepaRG treated before and during HBV inoculation",70%
same,"other viral markers (intracellular RNAs, HBeAg, HBsAg), genotype C","[2]; dHepaRG treated before and during inoculation, 10 microM",also reduced
